The source of these data is patent publication EP1543832A2, “Use of trans-4[4-(3-chloro-4-methoxy-benzylamino) benzothieno[2,3-d]pyrimidin-2-yl]-cyclohexanecarboxylic acid in the treatment of extrapyramidal movement disorders” (MERCK PATENT GmbH, priority 2003, dated 2005).

In test [1] the test system is advanced idiopathic Parkinson's disease complicated by "peak-dose" dyskinesia. In words: Double-blind cross-over study, peak-dose dyskinesia after l-dopa challenge in advanced idiopathic Parkinson's disease. It is filed as in vivo, patients. Conditions: first hour in the "on" state after l-dopa challenge; add-on 2.5 to 10 mg b.i.d. versus placebo. An excerpt: A typical study to investigate the efficacy of the compounds according to the invention for adverse effects in Parkinson's disease is described in the following. 40 patients of either sex with advanced idiopathic Parkinson's disease complicated by "peak-dose" dyskinesia participate in a double-blind, cross-over study. The main inclusion criteria are Hoehn & Yahr stage ≥ 2.5 (lit.: Hoehn H.M. et al, Neurology 1967; 17: 427-442), aged 40-75 years, symptom duration of at least 5 years, and a I-dopa treatment duration of at least 3 years. trans-4-[4-(3-chloro-4-methoxybenzylamino)-benzothieno-[2,3-d]pyrimidin-2-yl]cyclohexanecarboxylic acid sodium or ethanolamine salt or placebo is administered as "add on" to the conventional Parkinson treatment; which is maintained unchanged during the whole study. The dose of blinded medication is titrated over a period of 3 weeks in a range from 2.5 to 10 mg b.i.d. Then the medication is kept constant for 1 week. Before the start of titration and at the end of the treatment period a I-dopa challenge is performed according to P. Damier et al. (Movement Disord,1999, 14 (Suppl. 1), 54-59) using video recording. The main outcome measure of the protocol is the mean score for dyskinesia during the first hour in the "on" state after I-dopa challenge. […]

In test [2] the test system is idiopathic Parkinson's disease. In words: Double-blind add-on study in idiopathic Parkinson's disease (UPDRS). Format: in vivo, patients. The conditions noted are these: add-on 2.5 to 10 mg b.i.d. versus placebo. An excerpt:
A typical study to investigate the efficacy of the compounds according to the invention in the treatment of idiopathic Parkinson's disease is described in the following. 180 patients of either sex with idiopathic Parkinson's disease participate in a double-blind study. The main inclusion criteria are Hoehn & Yahr stage ≥ 2.0 (Hoehn H.M. et al, Neurology 1967; 17: 427-442), aged 50-80 years, symptom duration of at least 5 years. Trans-4-[4-(3-chloro-4-methoxybenzylamino)-benzothieno-[2,3-d]pyrimidin-2-yl]cyclohexanecarboxylic acid or placebo is administered as "add on" to the conventional Parkinson treatment, which is maintained unchanged during the whole study. The dose of blinded medication is titrated over a period of 4 weeks in a range from 2.5 to 10 mg b.i.d. Then the medication is kept constant for 1 week. Before the start of titration, at the end of the treatment period and 2 weeks after the end of the tiration period an assessment is performed in each patients using the unified Parkinson's disease rating scale (UPDRS part I to V according to S. Fahn et al., in: Recent developments in Parkinson's disease, vol. 2, MacMillan health information 1987, 153-163). […]

The test system of a further test is MSA patients. Nature of the test: Placebo-controlled cross-over add-on study in MSA patients (UPDRS). It is filed as in vivo. Conditions: add-on 2.5 to 20 mg b.i.d. versus placebo. An excerpt: A typical study to investigate the efficacy of the compounds according to the invention in MSA patients encompasses 30 patients of either sex with a symptom duration of at least 5 years and a significant reduction of central dopamine receptors in positron emission tomography (PET) scan. The study design is similar to that described above for Parkinson's disease. Trans-4-[4-(3-chloro-4-methoxybenzylamino)-benzothieno-[2,3-d]pyrimidin-2-yl]cyclohexanecarboxylic acid sodium or ethanolamine salt or placebo is titrated as "add on" to the conventional treatment (dose range 2.5 to 20 mg b.i.d.). Before the start of titration and at the end of the treatment period a complete UPDRS assessment is performed in each patient (primary outcome measure). After a 2-week wash-out period the two study arms are crossed over and the protocol is repeated.

A further test deals with tardive dyskinesia. In words: Double-blind cross-over add-on study in tardive dyskinesia (AIMS). Format: in vivo, schizophrenic (DSM-III-R) inpatients. The conditions noted are these: add-on to antipsychotic treatment, 2.5 to 20 mg b.i.d., compared with placebo period. An excerpt: Tardive dyskinesia is a common adverse effect of long-term treatment with neuroleptics. A typical study to investigate the efficacy of the compounds according to the invention in tardive dyskinesia is described in the following. 32 schizophrenic (DSM-III-R) inpatients aged 25 - 60 years on long-term stable antipsychotic treatment (duration of at least 5 years) entered the study. Trans-4-[4-(3-chloro-4-methoxybenzylamino)-benzothieno-[2,3-d]pyrimidin-2-yl]cyclohexanecarboxylic acid sodium or ethanolamine salt or placebo is administered as "add on" to the antipsychotic treatment, which is kept constant during the whole study. The dose of blinded medication is titrated over a period of 3 weeks in a range from 2.5 to 20 mg b.i.d. Then the medication is maintained under double-blind conditions for 2 weeks. After a 2-week wash-out period, the test drugs are crossed over. Assessments of tardive dyskinesia by means of the Abnormal Involuntary Movement Scale (AIMS, see obove) and of Parkinsonian extrapyramidal side effects (UPDRS, see above) are made pretreatment and posttreatment.

Where a name gives a salt, the structure may show the parent alone.

On to `COc1ccc(CNc2nc([C@H]3CC[C@H](C(=O)O)CC3)nc3sc4ccccc4c23)cc1Cl` [trans-4-[4-(3-chloro-4-methoxybenzylamino)-benzothieno-[2,3-d]pyrimidin-2-yl]cyclohexanecarboxylic acid sodium or ethanolamine salt], for which, in test [1], the mean dyskinesia scores result is recorded as “significant clinical improvement”. Further, the UPDRS scores entry in test [2] is “significant clinical improvement”. Moreover, the UPDRS entry in the test on MSA patients is on record as “significant clinical improvement”. For the same compound, the AIMS scores result in the test on tardive dyskinesia is reported as “significantly lower than during placebo period”.
